Results as given in BindingDB's records for doi:10.1016/0960-894X(95)00351-S (1995).

Experiment: Inhibition of platelet aggregation using human platelet rich plasma (hPRP) assay (200microL, 2-3 x 10e 8 platelets/mL, n=1)

Structure (SMILES)	IC50 [nM]
CC(C)[C@H]1NC(=O)C2=CC=C(CNC(=O)[C@H](CC(=O)O)NC(=O)CNC(=O)[C@H](CCCNC(=N)N)N(C)C1=O)O2 [[(5S,11S,14S)-11-(3-Guanidino-propyl)-14-isopropyl-12-methyl-4,7,10,13,16-pentaoxo-20-oxa-3,6,9,12,15-pentaaza-bicyclo[15.2.1]icosa-1(19),17-dien-5-yl]-acetic acid]	50
CC(C)[C@H]1NC(=O)c2cccc(n2)CNC(=O)[C@H](CC(=O)O)NC(=O)CNC(=O)[C@H](CCCN=C(N)N)N(C)C1=O [[(5S,11S,14S)-11-(3-Guanidino-propyl)-14-isopropyl-12-methyl-4,7,10,13,16-pentaoxo-3,6,9,12,15,21-hexaaza-bicyclo[15.3.1]henicosa-1(21),17,19-trien-5-yl]-acetic acid]	2000
CC(C)[C@H]1NC(=O)/C=C\CCNC(=O)[C@H](CC(=O)O)NC(=O)CNC(=O)[C@H](CCCNC(=N)N)N(C)C1=O [[(Z)-(3R,9R,12R)-9-(3-Guanidino-propyl)-12-isopropyl-10-methyl-2,5,8,11,14-pentaoxo-1,4,7,10,13pentaaza-cyclooctadec-15-en-3-yl]-acetic acid]	200
CC(C)[C@H]1NC(=O)C2=CC=C(CNC(=O)[C@H](CC(=O)O)NC(=O)CNC(=O)[C@H](CCCN=C(N)N)N(C)C1=O)S2 [[(5S,11S,14S)-11-(3-Guanidino-propyl)-14-isopropyl-12-methyl-4,7,10,13,16-pentaoxo-20-thia-3,6,9,12,15-pentaaza-bicyclo[15.2.1]icosa-1(19),17-dien-5-yl]-acetic acid]	100
CC(C)[C@H]1NC(=O)c2cccc(c2F)CNC(=O)[C@H](CC(=O)O)NC(=O)CNC(=O)[C@H](CCCN=C(N)N)N(C)C1=O [[(5S,11S,14S)-21-Fluoro-11-(3-guanidino-propyl)-14-isopropyl-12-methyl-4,7,10,13,16-pentaoxo-3,6,9,12,15-pentaaza-bicyclo[15.3.1]henicosa-1(20),17(21),18-trien-5-yl]-acetic acid]	20

Further lines, results first:

IC50 [nM]	Structure (SMILES)
400	CC(C)[C@H]1NC(=O)Cc2csc(n2)NC(=O)[C@H](CC(=O)O)NC(=O)CNC(=O)[C@H](CCCN=C(N)N)N(C)C1=O [[(4S,10S,13S)-10-(3-Guanidino-propyl)-13-isopropyl-11-methyl-3,6,9,12,15-pentaoxo-19-thia-2,5,8,11,14,20-hexaaza-bicyclo[15.2.1]icosa-1(20),17-dien-4-yl]-acetic acid]
100	CC(C)[C@H]1NC(=O)c2ccc([nH]2)CNC(=O)[C@H](CC(=O)O)NC(=O)CNC(=O)[C@H](CCCNC(=N)N)N(C)C1=O [[(5S,11S,14S)-11-(3-Guanidino-propyl)-14-isopropyl-12-methyl-4,7,10,13,16-pentaoxo-3,6,9,12,15,20-hexaaza-bicyclo[15.2.1]icosa-1(19),17-dien-5-yl]-acetic acid]
200	CC(C)[C@H]1NC(=O)C/C=C\CNC(=O)[C@H](CC(=O)O)NC(=O)CNC(=O)[C@H](CCCN=C(N)N)N(C)C1=O [[(Z)-(3R,9R,12R)-9-(3-Guanidino-propyl)-12-isopropyl-10-methyl-2,5,8,11,14-pentaoxo-1,4,7,10,13pentaaza-cyclooctadec-16-en-3-yl]-acetic acid]
20	CC(C)[C@H]1NC(=O)c2cccc(c2)CNC(=O)[C@H](CC(=O)O)NC(=O)CNC(=O)[C@H](CCCNC(=N)N)N(C)C1=O [DMP-757]
